The source of these data is patent publication US10167258B2, “Inhibitors of mitochondrial pyruvate dehydrogenase kinase isoforms 1-4 and uses thereof” (The Board of Regents of the University of Texas System, priority 2013, dated 2019).

Where two headings read alike, the source gives them in different places.

One data set has as its system Hsp90. The following applies: literature value; cited from earlier work.
Data set [1] has as its target T1, PDK4 (Homo sapiens, UniProt Q16654). The following applies: literature value; cited from earlier work.
Target sequence in this assay (Q16654 whole entry, species assumed, the tested form may be a part): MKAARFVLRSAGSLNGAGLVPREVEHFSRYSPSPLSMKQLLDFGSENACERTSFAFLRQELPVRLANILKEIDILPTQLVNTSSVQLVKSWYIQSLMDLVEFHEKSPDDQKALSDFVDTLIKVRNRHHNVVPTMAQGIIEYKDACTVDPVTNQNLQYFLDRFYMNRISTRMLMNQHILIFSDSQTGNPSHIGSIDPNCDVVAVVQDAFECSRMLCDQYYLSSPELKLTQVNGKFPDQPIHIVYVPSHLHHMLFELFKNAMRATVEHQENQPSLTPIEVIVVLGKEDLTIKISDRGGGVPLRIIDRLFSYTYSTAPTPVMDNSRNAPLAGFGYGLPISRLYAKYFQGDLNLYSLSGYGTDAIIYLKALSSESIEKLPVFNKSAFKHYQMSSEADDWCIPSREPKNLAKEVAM
In data set [2] the target is T1, PDK4. Description: Assay for inhibition of PDK activity, PDK4. It is filed as biochemical. Set-up: made in house. How it is done: (§1) Recombinant human PDK2 was expressed and purified as a N terminal His6-tagged SUMO fusion protein with a tobacco-etch-virus protease (TEV) cleavage site in front of the N-terminal PDK2 sequence (26), and was used directly for the activity assay and binding affinity analyses. […] The purified protein was concentrated to 35-40 mg/ml and stored at −80° C. in small aliquots. Recombinant human PDK1, PDK3 and PDK4 were expressed and purified as described previously (26).
(§2) The remaining steps were described previously (26). IC50 values were obtained by the curve fitting of inhibition isotherms using Prism 6 (GraphPad software, Inc.).
Target sequence in this assay (Q16654 whole entry, the tested form may be a part): as the sequence (Q16654 whole entry, species assumed, the tested form may be a part) above

Data set [3] has as its target T2, PDK2 (Homo sapiens, UniProt Q15119). Put plainly: Isothermal titration calorimetry (ITC), binding to PDK2. Set-up: made in house. How it is done:
as §1
(§3) The PDK2 or Hsp90 N-terminal domain protein was dialyzed against one liter of the dialysis buffer containing 50 mM Tris-Cl, pH 7.5, 50 mM KCl, 1 mM MgCl2, and 0.5 mM β-mercaptoethanol. […] All of the ITC data were initially analyzed by the NITPIC program (32) to construct the baseline, followed by curve-fitting in Origin 7 to obtain binding parameters.

For data set [4], the target named is T2, PDK2. Description: Assay for inhibition of PDK activity, PDK2. Set-up: made in house. Format: biochemical. How it is done: as §1, §2
Data set [5] addresses T3, N-terminal domain of human Hsp90 (Homo sapiens, UniProt P07900).
T3 construct: the N-terminal domain (residue 1-236) of human Hsp90; His6 (N); SUMO (N); made in house; host or cells: E. coli BL21
Put plainly: Isothermal titration calorimetry (ITC), binding to Hsp90 N-terminal domain. The following applies: read-out: Kd, nM for Hsp 90. On the procedure:
The sequence encoding the N-terminal domain was amplified and cloned into the pSUMO expression vector (Lifesensors, Malvern, Pa.). The fusion protein of His6-tagged SUMO-Hsp90 N-terminal domain was expressed in E. coli BL21 cells and purified with Ni-NTA resin (Qiagen) and on Superdex-200 column in 20 mM Tris.HCl, pH 7.5 and 500 mM NaCl.
as §3

Data set [6] deals with T2, PDK2. Put plainly: biochemical. How it is done: The kinase-profiling of PS8 on 21 human protein kinases were performed at Reaction Biology Corp. (Malvern, Pa.). […] Each protein kinase was also tested against its known inhibitor as a positive control.
The selectivity of PS8 was studied by determining IC50 for the inhibition of a 21-kinase panel including PDK2. […] Except PDK4, PDK isoforms anchor to the E2/E3BP of PDC for optimal kinase activity in vivo.

A short description of data set [7]: Pharmacokinetic studies in mice after IP dosing. Format: in vivo. The following applies: 20 mg/kg IP, female CD-1 mice, plasma. On the procedure: Twenty-one male C57BL/6J mice were dosed IP with 70 mg/kg PS-10, 0.2 ml/mouse formulated as 10% DMSO/20% water/70% of 25% (2-hydroxypropyl)-β-cyclodextrin for determination of PS-10 PK. Twenty-one female CD-1 mice were dosed IP with 20 mg/kg PS-8, 0.2 ml/mouse formulated as 5% ethanol and 95% of 0.1 M sodium bicarbonate pH 9.0 for determination of PS-8 PK. Animal (n=3) were sacrificed and whole blood was harvested for each time point. Plasma was processed from whole blood by centrifugation of the ACD treated blood for 10′ at 10,000 rpm in a standard centrifuge. The analytical processing of blood samples and pharmacokinetics studies using LC/MS/MS were as described previously with LC/MS/MS methods optimized for detection of PS-10 and PS-8 (33).

Data set [8] in a line: Half-life in vitro in hepatic S9 fractions. It is filed as in vitro ADME. The following applies: data not shown.
Data set [9] has as its target T4, PDK3 (Homo sapiens, UniProt Q15120). Put plainly: Assay for inhibition of PDK activity, PDK3. Set-up: made in house. It is filed as biochemical. On the procedure:
(§4) Recombinant human PDK2 was expressed and purified as a N terminal His6-tagged SUMO fusion protein with a tobacco-etch-virus protease (TEV) cleavage site in front of the N-terminal PDK2 sequence (26), and was used directly for the activity assay and binding affinity analyses. For crystallization, the protein was subjected to a TEV-protease digestion, and the untagged PDK2 protein was purified on a Superdex 200 column in 20 mM Tris-HCl (pH 8.0), 150 mM NaCl and 5 mM DTT. The purified protein was concentrated to 35-40 mg/ml and stored at −80° C. in small aliquots. Recombinant human PDK1, PDK3 and PDK4 were expressed and purified as described previously (26).
(§5) . The remaining steps were described previously (26). IC50 values were obtained by the curve fitting of inhibition isotherms using Prism 6 (GraphPad software, Inc.).
Target sequence in this assay (Q15120 whole entry, the tested form may be a part): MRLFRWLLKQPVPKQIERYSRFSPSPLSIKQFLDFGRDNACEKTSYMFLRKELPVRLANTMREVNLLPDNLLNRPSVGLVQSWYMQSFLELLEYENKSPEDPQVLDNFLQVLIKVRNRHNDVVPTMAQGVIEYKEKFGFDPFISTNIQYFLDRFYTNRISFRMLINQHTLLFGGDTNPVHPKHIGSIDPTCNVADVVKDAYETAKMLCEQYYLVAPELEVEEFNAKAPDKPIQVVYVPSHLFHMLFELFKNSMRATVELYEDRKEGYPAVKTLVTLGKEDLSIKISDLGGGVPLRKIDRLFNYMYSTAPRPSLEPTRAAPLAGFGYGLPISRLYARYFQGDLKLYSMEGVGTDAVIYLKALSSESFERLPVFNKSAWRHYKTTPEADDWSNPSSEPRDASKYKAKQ

A further data set has as its target T5, human PDK1 (Homo sapiens, UniProt Q15118).
T5 construct: made in house
Put plainly: Assay for inhibition of PDK activity, PDK1. Format: biochemical. How it is done: as §4, §5

The target in data set [10] is T4, PDK3. The following applies: literature value; read-out: IC50 (ATP-competitive inhibitor, PDK3); cited from earlier work.
Target sequence in this assay (Q15120 whole entry, species assumed, the tested form may be a part): as the sequence (Q15120 whole entry, the tested form may be a part) above
In a further data set the test system is PDK. The following applies: literature value; read-out: IC50 (known PDK inhibitor); cited from earlier work.
Where [11] appears, read: Table 1, inhibitor 31.6 nM to 1 mM, read-out: IC50, μM for PDK4.
The mark [12] stands for this setting: Table 1, inhibitor 31.6 nM to 1 mM, read-out: IC50, μM for PDK2.

T5 sequence (Q15118 29-436): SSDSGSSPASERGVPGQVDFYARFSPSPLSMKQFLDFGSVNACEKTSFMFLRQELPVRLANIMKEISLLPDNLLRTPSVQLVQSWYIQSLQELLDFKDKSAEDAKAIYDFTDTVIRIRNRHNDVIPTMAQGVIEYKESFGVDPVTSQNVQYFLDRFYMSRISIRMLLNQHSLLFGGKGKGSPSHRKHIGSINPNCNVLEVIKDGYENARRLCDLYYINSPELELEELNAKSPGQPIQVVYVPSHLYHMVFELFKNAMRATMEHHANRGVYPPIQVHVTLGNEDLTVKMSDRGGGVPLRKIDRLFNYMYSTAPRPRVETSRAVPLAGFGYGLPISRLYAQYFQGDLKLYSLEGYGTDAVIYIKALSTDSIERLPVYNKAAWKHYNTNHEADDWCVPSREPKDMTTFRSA

The IC50 is the point on the concentration scale where inhibition reaches its midpoint. Turning to `COc1ccc(-c2c(-c3ccc(O)cc3O)n[nH]c2C)cc1` [Compound M77976], the IC50 with Hsp90 was 4.4 µM; at PDK4 [1], 648 µM.

By Kd is commonly meant a measure of binding affinity in units of concentration. For `O=C(c1cc(Br)c(O)cc1O)N1Cc2ccccc2C1` [PA1, (5-bromo-2,4-dihydroxyphenyl)(isoindolin-2-yl)methanone], the figures for the IC50 on PDK4 [2] (setting [11]) and on PDK2 [4] (setting [12]) were 1.86 µM and 6.78 µM, respectively. In addition, the Kd at PDK2 [3] (ITC, read-out: Kd, nM for PDK2) was 3570 nM.

On to `O=C(c1ccc(O)cc1O)N1Cc2ccccc2C1` [PA7, (2,4-dihydroxyphenyl)(isoindolin-2-yl)methanone], for which the figures for the IC50 at PDK4 [2] (setting [11]) and at PDK2 [4] (setting [12]) were 1.05 µM and 5.68 µM, respectively. Also, the Kd on PDK2 [3] (ITC, read-out: Kd, nM for PDK2) turned out to be 1830 nM.

Take `O=S(=O)(c1ccc(O)cc1O)N1Cc2ccccc2C1` [PS2, 4-(isoindolin-2-ylsulfonyl)benzene-1,3-diol]: the IC50 came out at 2.2 µM on PDK4 [2] (setting [11]) and 2.11 µM on PDK2 [4] (setting [12]). Also, the Kd stood at 711 nM at PDK2 [3] (ITC, read-out: Kd, nM for PDK2) and 50900 nM in data set [5]. In addition, the “shift in binding affinities in favor of PDK2 (carbonyl in PA7 to sulfonyl in PS2)” value at PDK2 [3] (from Kd values for PDK2 and Hsp90) is given as 4,791 fold.

One may read the CL/F as the apparent clearance, not corrected for the fraction that reaches the circulation. The term AUC(0-t) denotes exposure summed from dosing to a finite time, without extrapolation to infinity. By Cmax is commonly meant the maximum level reached in the sampled fluid or tissue. For orientation: Tmax means the time from dosing to the highest level. Take `O=S(=O)(c1ccc(O)cc1O)N1Cc2ccc(O)cc2C1` [PS8, 4-((5-hydroxyisoindolin-2-yl)sulfonyl)benzene-1,3-diol]: the IC50 on PDK2 [6] came out at 70 nM; at PDK4 [2] (setting [11]), 1.1 µM; at PDK4 [2] (presence of E2/E3BP core (+), read-out: IC50 for PDK4), 0.84 ± 0.08 µM; against PDK3 [9] (absence of E2/E3BP core (−)), 13.7 ± 2.08 µM; at PDK3 [9] (presence of E2/E3BP core (+)), 2.55 ± 0.38 µM; at PDK2 [4] (setting [12]), 1.07 µM. Also, the IC50 at PDK2 [4] (presence of E2/E3BP core (+), read-out: IC50 for PDK2) is 0.71 ± 0.14 µM; at human PDK1 (absence of E2/E3BP core (−)) it was 2500 ± 140 nM; on human PDK1 (presence of E2/E3BP core (+)) it was 2140 ± 330 nM. Besides, the “IC50 of all other kinases on the panel relative to PDK2” value against PDK2 [6] (21-kinase panel, next lowest CDK1/cyclin B) is “at least 3 orders of magnitude”. The Kd amounted to 426 nM on PDK2 [3] (ITC, read-out: Kd, nM for PDK2) and 60100 nM in data set [5]. Further, in data set [7], the CL/F came to 1.55 mL/min. In data set [7] (mouse), this molecule had an AUC(0-t) of 5170 ng·h/mL. The same molecule yielded a Cmax in data set [7] (mouse) of 7600 ng/mL. Moreover, the Tmax in data set [7] (mouse) was 10 min. The half-life was 93.3 min in data set [7] (mouse, read-out: Terminal T1/2) and over 240 min in [8]. The Vd/F in data set [7] (mouse, read-out: Vz/F) was 0.209 L.

As to `O=S(=O)(c1ccc(O)cc1O)N1Cc2ccc(NC3CCNCC3)cc2C1` [PS35], the Kd on PDK2 [3] stood at 143 nM. At PDK2 [4], this molecule registered an IC50 of 0.61 µM.

On PDK2 [3], `O=S(=O)(c1ccc(O)cc1O)N1Cc2ccc(NC3CCN(CC(O)CO)CC3)cc2C1` (stereo not shown) [PS38] came in with a Kd of 188 nM.

Molecule `O=C(C1C[C@@H](O)C(O)[C@H](O)C1)N1CCC(Nc2ccc3c(c2)CN(S(=O)(=O)c2ccc(O)cc2O)C3)CC1` (stereo partly shown) [PS39] came in with a Kd on PDK2 [3] of 338 nM.

The molecule `O=C(C1=C[C@@H](O)[C@@H](O)[C@H](O)C1)N1CCC(Nc2ccc3c(c2)CN(S(=O)(=O)c2ccc(O)cc2O)C3)CC1` [PS40] displayed a Kd at PDK2 [3] of 403 nM.

On PDK2 [3], `O=C(O)CCCCN1CCC(Nc2ccc3c(c2)CN(S(=O)(=O)c2ccc(O)cc2O)C3)CC1` [PS41] came in with a Kd of 1400 nM.

On to `O=C(O)CCCN1CCC(Nc2ccc3c(c2)CN(S(=O)(=O)c2ccc(O)cc2O)C3)CC1` [PS42], for which the Kd at PDK2 [3] is 917 nM.

Regarding `C[C@@H]1C[C@H]2O[C@@H]2/C=C\C=C\C(=O)Cc2c(Cl)c(O)cc(O)c2C(=O)O1` [Radicicol, radicicol, reference compound], at PDK2 [3] (ITC, read-out: Kd, nM for PDK2), the Kd came to 18600 nM. Further, the IC50 on PDK2 [4] (setting [12]) was 77.8 µM; at PDK3 [10], 230 to 400 µM.

In the case of `C[C@@H]1CN(C(=O)[C@@](C)(O)C(F)(F)F)[C@@H](C)CN1C(=O)c1ccc(C#N)cc1` [compound 3, (+)-1-N-[2,5-(S,R)-dimethyl-4-N-(4-cyanobenzoyl)piperazine]-(R)-3,3,3-trifluoro-2-hydroxy-2-methylpropan-amide], the IC50 with PDK was 16 nM.
